These results are taken from patent publication US8410112B2, “Compounds useful as inhibitors of ATR kinase” (Vertex Pharmaceuticals Incorporated, priority 2008, dated 2013).

Each structure is given as a SMILES string. pKi: −log10 of the molar value.

T1 sequence (Q13535 whole entry): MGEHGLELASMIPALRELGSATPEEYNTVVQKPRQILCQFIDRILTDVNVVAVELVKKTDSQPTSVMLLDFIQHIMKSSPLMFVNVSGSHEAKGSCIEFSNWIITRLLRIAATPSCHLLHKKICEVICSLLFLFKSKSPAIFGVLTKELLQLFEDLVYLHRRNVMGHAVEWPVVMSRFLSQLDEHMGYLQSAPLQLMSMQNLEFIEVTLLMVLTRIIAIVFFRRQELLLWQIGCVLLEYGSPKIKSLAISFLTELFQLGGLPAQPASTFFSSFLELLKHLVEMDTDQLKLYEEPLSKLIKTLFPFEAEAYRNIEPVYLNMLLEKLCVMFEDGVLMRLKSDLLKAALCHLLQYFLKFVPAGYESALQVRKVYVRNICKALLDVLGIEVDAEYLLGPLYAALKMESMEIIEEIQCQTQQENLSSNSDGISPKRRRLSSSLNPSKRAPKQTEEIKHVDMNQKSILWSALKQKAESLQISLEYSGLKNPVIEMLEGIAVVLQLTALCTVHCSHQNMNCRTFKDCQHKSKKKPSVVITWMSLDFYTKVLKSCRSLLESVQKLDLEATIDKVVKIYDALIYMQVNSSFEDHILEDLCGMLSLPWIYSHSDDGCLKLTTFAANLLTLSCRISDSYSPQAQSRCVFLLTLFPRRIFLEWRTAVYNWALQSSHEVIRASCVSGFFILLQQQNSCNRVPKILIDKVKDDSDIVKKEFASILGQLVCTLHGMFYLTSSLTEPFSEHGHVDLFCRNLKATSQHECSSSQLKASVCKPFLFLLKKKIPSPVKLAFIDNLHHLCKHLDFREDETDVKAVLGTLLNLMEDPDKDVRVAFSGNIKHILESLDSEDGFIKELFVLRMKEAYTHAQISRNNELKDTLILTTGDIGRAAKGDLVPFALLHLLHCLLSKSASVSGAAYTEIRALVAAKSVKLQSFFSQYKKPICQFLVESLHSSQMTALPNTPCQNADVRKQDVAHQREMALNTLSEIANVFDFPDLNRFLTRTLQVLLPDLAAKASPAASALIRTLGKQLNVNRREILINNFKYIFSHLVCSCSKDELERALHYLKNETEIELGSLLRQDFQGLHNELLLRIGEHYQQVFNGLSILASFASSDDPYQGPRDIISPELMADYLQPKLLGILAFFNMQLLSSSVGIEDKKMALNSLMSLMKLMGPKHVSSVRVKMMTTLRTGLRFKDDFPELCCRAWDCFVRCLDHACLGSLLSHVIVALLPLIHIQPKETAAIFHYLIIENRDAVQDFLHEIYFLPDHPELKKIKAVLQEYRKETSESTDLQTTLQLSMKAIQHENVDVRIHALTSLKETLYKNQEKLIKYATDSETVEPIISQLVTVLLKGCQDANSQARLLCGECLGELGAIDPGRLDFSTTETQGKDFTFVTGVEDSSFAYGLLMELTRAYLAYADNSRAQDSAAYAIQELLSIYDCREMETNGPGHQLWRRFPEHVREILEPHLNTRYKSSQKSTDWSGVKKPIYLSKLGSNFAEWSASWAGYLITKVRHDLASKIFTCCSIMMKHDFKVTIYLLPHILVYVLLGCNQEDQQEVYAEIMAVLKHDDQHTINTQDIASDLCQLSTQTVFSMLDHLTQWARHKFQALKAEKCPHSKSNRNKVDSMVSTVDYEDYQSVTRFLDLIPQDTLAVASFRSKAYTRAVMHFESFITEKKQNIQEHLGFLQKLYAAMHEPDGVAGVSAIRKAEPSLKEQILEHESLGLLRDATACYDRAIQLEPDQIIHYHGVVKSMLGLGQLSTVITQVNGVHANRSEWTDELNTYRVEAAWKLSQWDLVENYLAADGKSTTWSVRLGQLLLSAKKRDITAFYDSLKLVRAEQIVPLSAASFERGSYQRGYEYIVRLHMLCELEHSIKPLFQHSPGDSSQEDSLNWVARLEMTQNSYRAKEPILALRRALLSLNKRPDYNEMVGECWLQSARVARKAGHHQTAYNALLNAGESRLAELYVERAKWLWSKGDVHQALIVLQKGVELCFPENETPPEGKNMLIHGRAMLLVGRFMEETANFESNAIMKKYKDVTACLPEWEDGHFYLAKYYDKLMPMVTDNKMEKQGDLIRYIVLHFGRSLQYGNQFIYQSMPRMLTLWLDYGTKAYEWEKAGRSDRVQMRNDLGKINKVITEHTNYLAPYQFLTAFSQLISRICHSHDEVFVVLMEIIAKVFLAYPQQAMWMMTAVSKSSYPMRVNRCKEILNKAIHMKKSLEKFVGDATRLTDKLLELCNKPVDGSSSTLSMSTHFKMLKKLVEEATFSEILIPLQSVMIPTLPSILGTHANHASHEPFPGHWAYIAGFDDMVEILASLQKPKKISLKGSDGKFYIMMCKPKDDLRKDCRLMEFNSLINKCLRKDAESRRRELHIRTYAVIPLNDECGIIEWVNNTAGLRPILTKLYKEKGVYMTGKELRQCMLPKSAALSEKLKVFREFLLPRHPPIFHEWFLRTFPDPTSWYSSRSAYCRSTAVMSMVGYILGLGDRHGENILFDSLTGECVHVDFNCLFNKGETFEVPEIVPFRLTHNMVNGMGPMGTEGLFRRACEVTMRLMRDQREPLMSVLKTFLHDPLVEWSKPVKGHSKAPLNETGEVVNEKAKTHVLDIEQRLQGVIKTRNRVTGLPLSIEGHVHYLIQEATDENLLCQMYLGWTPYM

This test concerns the target T1, full-length ATR (Homo sapiens, UniProt Q13535).
T1 construct: in the presence of 5 nM full-length ATR
In words: ATR Inhibition Assay (radioactive-phosphate incorporation). The note with it: Ki(app); 5 nM full-length ATR, 10 μM ATP, 800 μM target peptide, 25° C. Type of test: biochemical. The method in brief:
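Buffer was 50 mM Tris/HCl pH 7.5, 10 mM MgCl2, 1 mM DTT, with 5 nM enzyme, 10 μM [γ-33P]ATP and 800 μM target peptide at 25 °C. Compound was pre-incubated 10 min before ATP start, and the reaction was stopped after 24 h. Phosphocellulose filter capture; Ki(app) came from non-linear regression of background-corrected initial rates.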
`COCC(=O)N1CCN(c2cnc(N)c(-c3nnc(-c4ccccc4)o3)n2)CC1` [Compound I-179, 1-(4-(5-amino-6-(5-phenyl-1,3,4-oxadiazol-2-yl)pyrazin-2-yl)piperazin-1-yl)-2-methoxyethanone]: the pKi (commonly −log10 of the Ki, conventionally taken in molar units) was 6.00 to 7.00.
As to `Cc1ccc2nc(-c3nc(N4CCC5(CC4)OCCO5)cnc3N)[nH]c2c1` [Compound I-33, 3-(6-methyl-1H-benzo[d]imidazol-2-yl)-5-(1,4-dioxa-8-azaspiro[4.5]decan-8-yl)pyrazin-2-amine], the pKi was 5.00 to 6.00.
As to `Cc1cccc(C)c1C(=O)N1CC=C(c2cnc(N)c(-c3nc4ccccc4[nH]3)n2)CC1` [Compound I-263, (4-(5-amino-6-(1H-benzo[d]imidazol-2-yl)pyrazin-2-yl)-5,6-dihydropyridin-1(2H)-yl)(2,6-dimethylphenyl)methanone], the pKi was above 7.00.
The same measure for `Nc1ncc(N2CCN(C(=O)c3ccccn3)CC2)nc1-c1nnc(-c2ccccc2)o1` [Compound I-187, (4-(5-amino-6-(5-phenyl-1,3,4-oxadiazol-2-yl)pyrazin-2-yl)piperazin-1-yl)(pyridin-2-yl)methanone]: 6.00 to 7.00; for `Nc1ncc(C2=CCN(C(=O)N3CCCCC3)CC2)nc1-c1nc2ccccc2[nH]1` [Compound I-249, (4-(5-amino-6-(1H-benzo[d]imidazol-2-yl)pyrazin-2-yl)-5,6-dihydropyridin-1(2H)-yl)(piperidin-1-yl)methanone]: 6.00 to 7.00.
The figure for `CCS(=O)(=O)N1CCN(c2cnc(N)c(C(=O)Nc3ccccn3)n2)CC1` [Compound I-55, 3-amino-6-(4-(ethylsulfonyl)piperazin-1-yl)-N-(pyridin-2-yl)pyrazine-2-carboxamide] is 6.00 to 7.00; for `CS(=O)(=O)CCN1CCN(c2cnc(N)c(-c3nnc(-c4ccccc4)o3)n2)CC1` [Compound I-296, 5-[4-(2-methylsulfonylethyl)piperazin-1-yl]-3-(5-phenyl-1,3,4-oxadiazol-2-yl)pyrazin-2-amine] it is 6.00 to 7.00; for `Cn1cnc(S(=O)(=O)N2CCN(c3cnc(N)c(-c4nc5ccccc5[nH]4)n3)CC2)c1` [Compound I-91, 3-(1H-benzo[d]imidazol-2-yl)-5-(4-(1-methyl-1H-imidazol-4-ylsulfonyl)piperazin-1-yl)pyrazin-2-amine] it is 6.00 to 7.00.
